Test results: patent publication EP1721613A1, “Hesperidin for the treatment of epilepsy, migraine, schizophrenia, depression and drug abuse” (priority 2005, dated 2006)
“Also recorded” adds a separate entry of the source.

How the values were obtained:
[1] = system: Pyramidenzellen im Hippokampus-Schnittpräparat; test: Hippocampal slice in vitro: population spike after single stimuli and long-term potentiation after theta-burst stimulation; assay type: cell-based, Ratte; settings: n=6 slices; for Langzeitpotenzierung durch TBS: theta-burst stimulation, 5 bis 60 µM for Hesperidin
Text: (§1) Wirkungen von Hesperidin und Hesperetin auf die Erregbarkeit der Pyramidenzellen wurden im Hippokampus-Schnittpräparat der Ratte bestimmt. Die Analyse der Wirkungen erfolgte auf drei Ebenen. Zunächst wurde anhand der Applikation von Einzelreizen die normale Erregbarkeit überprüft und anschließend nach einer sog. "Theta-burst-Stimulation" die Auswirkungen auf die Langzeitpotenzierung gemessen. Im nächsten Schritt wurde versucht, die Wirkung von Krampf auslösenden Substanzen zu antagonisieren. In einer dritten Versuchsserie wurde die Substanz eine Woche lang appliziert und dann "ex vivo" die Änderung der Erregbarkeit auf eine Provokation mit der Krampf auslösenden Substanz 3-Aminopyridin (3-AP) gemessen.
(§2) Für die Durchführung dieser Studien wurden 30 erwachsene männliche CD-Ratten verwendet. Die Isolation des Hippokampus erfolgte an äthemarkotisierten und anschließend exsanguinierten Tieren.
(§3) Das Experiment selbst wurde in einer sog. "Base Unit" mit Haas Top" (Firma Medical Systems Corp., USA) bei 35 Grad Celsius durchgeführt. Der mit Hilfe peristaltischer Pumpen (Infusomat B. Braun Melsungen AG) superfundierte Hippokampus-Schnitt lag auf einem Stück Gaze. Eingeleitetes Carbogen hielt die erforderliche Sauerstoffzufuhr der Lösung aufrecht. Die Durchflussgeschwindigkeit betrug 200 ml/h.
Die Stimulation der CA2-Region (Schaffer-Kollateralen) erfolgte unter Verwendung eines Reizgenerators (Laborcomputer Labteam der Fa. MediSyst GmbH, Linden, DE) über eine Isoliereinheit mit Hilfe einer bipolar konzentrischen Stahlelektrode (Rhodes Medical Systems, USA. Die Impulsbreite betrug 200 µs, die Stromstärke konstant 200 µA. Der Reizgenerator löste im Abstand von jeweils 20 Sekunden 4 Einzelreizungen aus, die im Schnitt insgesamt 4 Populationsspikes evozierten. Die Ableitung der Antwort erfolgte in der […] Region. Das System mittelte die Reizantwort der 4 Spike-Amplituden.
Dabei wurde der Schnitt zunächst mit Kontrolllösung superfundiert. […]

Fischer-344 Ratten = test: Tele-Stereo-EEG (changes of EEG frequencies in freely moving rats); assay type: in vivo, Ratte
Procedure: Die Veränderungen der EEG-Frequenzen nach intraperitonealer Gabe von Salzlösung (Kontrolle) bzw. verschiedener Dosen von Hesperidin (10 bis 300 mg/kg Körpergewicht sowie oral 500 mg/kg) wurden bestimmt. Ebenso wurden verschiedene Dosierungen von Hesperetin (80-320 mg/kg i.p. sowie 500 mg/kg oral untersucht.
Die Untersuchungen wurden analog der durch W. Dimpfel beschriebenen Methode (Dimpfel W Preclinical data base of pharmaco-specific rat EEG fingerprints (Tele-Stereo-EEG). Eur J Med Res (2003) 8: 199-207) folgendermaßen durchgeführt: Zwölf männlichen erwachsenen Fischer-344 Ratten (Tag-Nacht konvertiert) wurden im Alter von 6 Monaten 4 bipolar konzentrische Elektroden zusammen mit einem Mikrostecker auf einer gemeinsamen Basisplatte implantiert. Der Stecker diente der Aufnahme eines 4-Kanal-Senders zur telemetrischen Übertragung der aus frontalem Kortex, Hippokampus, Striatum und Formatio Reticularis abgeleiteten Feldpotentiale. Die Signale wurden auf einem Computer System (Software "EEG-Analyse", Betriebssystem OS Science, Laborrechner "LabTeam" der Firma MediSyst, Linden, DE) in Echtzeit einer Fast-Fourier-Transformation unterworfen und die Leistungsdichtespektren jeweils über 60 Minuten gemittelt. Die Unterteilung der Spektren in 6 verschiedene Frequenzbereiche erlaubte die Erfassung pharmako-spezifischer Veränderungen in Bezug auf die jeweils vor Applikation gemessenen Vorwerre innerhalb dieser Frequenzbänder.
Zum Applikationsprotokoll der Substanzen: die Substanzen wurden i.p. 45 Minuten nach Beginn der Messungen (Vorwert) injiziert. Fünf Minuten später wurden die Messungen wieder gestartet, mindestens über die nächsten 5 Stunden kontinuierlich analysiert und in 60-minütigen Perioden zusammengefaßt. Die Testsubstanzen wurden in einer Dosierung von 10 bis 500 mg/kg appliziert. Die experimentelle Serie wurde mit der Injektion von Salzlösung (Kontrolle), die zu keiner auffälligen Änderung führte, begonnen.
Der statistische Vergleich der Versuche zu den Ergebnissen, die nach Gabe von Salzlösung gemessen wurde, erfolgte mit Hilfe einer multivariaten Analyse nach Ahrens und Läuter (siehe H. Ahrens, J. Läuter "Mehrdimensionale Varianzanalyse" (1974), Akademie Verlag, Berlin) auf der Basis der Veränderungen innerhalb der einzelnen Frequenzbänder in allen Hirnregionen als Variablen.

[2] = system: Pyramidenzellen im Hippokampus-Schnittpräparat; test: Hippocampal slice in vitro: antagonism of the 4-aminopyridine-induced change of excitability; assay type: cell-based, Ratte; settings: superfused together with 4-Aminopyridin
Text: as §1, §2
as §3, with “ml/h. […]” for “ml/h.”

[3] = system: Pyramidenzellen des Hippokampus; test: Hippocampal slice ex vivo after 7 days of in vivo dosing: provocation with 4-aminopyridine; parameters: species or system Ratte; settings: 500 mg/kg daily over 7 days in vivo, compared with placebo
Text: as §1, with “In einer dritten Versuchsserie wurde die Substanz eine Woche lang appliziert und dann "ex vivo" die Änderung der Erregbarkeit auf eine Provokation mit der Krampf auslösenden Substanz 3-Aminopyridin (3-AP) gemessen.” left out
Dieselbe Versuchsanordnung wurde letztendlich noch einmal nach in vivo Applikation beider Substanzen in einer repetitiven Dosierung von 500 mg/kg täglich über 7 Tage im Vergleich zu Placebo angewandt (sog. "ex vivo" Design). Dabei sollte überprüft werden, ob eine repetitive Gabe zur Erregbarkeitsveränderungen der Pyramidenzellen des Hippokampus führt. […] Dieses Ergebnis ist auch ein Hinweis darauf, dass in vivo neben dem im Darm entstehenden Hesperetin auch genügend wirksames Hesperidin das Gehim erreicht. Gleichzeitig wird dadurch nochmals bestätigt, dass Hesperidin und Hesperetin ein unterschiedliches Wirkprofil haben.

[4] = system: autosomaler dominanter nocturner Frontallappenepilepsie; test: Therapeutic trial in one patient with drug-resistant epilepsy; assay type: in vivo, Patientin
Text: Um das Konzept auch am Patienten zu überprüfen, wurde einer jungen unter autosomaler dominanter nocturner Frontallappenepilepsie leidenden Patientin, die selbst in Gegenwart von 3 Gramm unterschiedlicher Antiepileptika weiterkrampfte (im Mittel 20 Anfälle pro Monat) täglich 1 Gramm Hesperidin abends vor dem Einschlafen oral über einen Zeitraum von 2 Monaten verabreicht. […] Das Ergebnis der Untersuchungen ist in Abb. 12 dokumentiert.

## Fc1ccc([C@@H]2CCNC[C@H]2COc2ccc3c(c2)OCO3)cc1 [Paroxetin, reference compound]
[1]
  Langzeitpotenzierung durch TBS: unterdrückt die Langzeitpotenzierung

## COc1ccc([C@@H]2CC(=O)c3c(O)cc(O[C@@H]4O[C@H](CO[C@@H]5O[C@@H](C)[C@H](O)[C@@H](O)[C@H]5O)[C@@H](O)[C@H](O)[C@H]4O)cc3O2)cc1O [Hesperidin, Hesperetin 7-rhamnoglucosid]
Fischer-344 Ratten; 20 mg/kg i.p.
  Veränderungen der Leistungsdichte in den einzelnen Hirnregionen: Zunahmen der alpha1 und beta Aktivität
Fischer-344 Ratten; 40 mg/kg i.p.
  Veränderungen der Leistungsdichte in den einzelnen Hirnregionen: Zunahmen der elektrischen Leistung im alpha1 und beta Bereich
Fischer-344 Ratten; 300 mg/kg i.p., significant at least at P < 5%
  Veränderungen der Leistungsdichte in den einzelnen Hirnregionen: generellen Abfall der elektrischen Leistung
Fischer-344 Ratten; 80 und 160 mg/kg i.p., statistically significant pattern, seen over the 5 hours of the test
  Veränderungen der Leistungsdichte in den einzelnen Hirnregionen: Abnahmen der elektrischen Leistung im delta, theta und alpha2 Bereich
Fischer-344 Ratten; higher dose
  EEG-Muster im Vergleich zu Referenzmedikamenten (Diskriminanzanalyse): dem nach Gabe klassischer Antidepressiva
Fischer-344 Ratten; low doses
  EEG-Muster im Vergleich zu Referenzmedikamenten (Diskriminanzanalyse): wie es für die Applikation von Mitteln gegen Migräne und Schizophrenie (Metoprolol bzw. Haloperidol und Risperidon) typisch ist
[1]; single stimuli, 5 bis 60 µM
  Amplitude des Populationsspikes bei Einzelreizung: Unterdrückung der Pyramidenzellaktivität nach Einzelreizung; also recorded: Konzentrations-abhängigen Abfall der Amplitude des Populationsspikes
[1]
  Langzeitpotenzierung durch TBS: Unterdrückung der Langzeitpotenzierung; also recorded: Konzentrations-abhängig unterdrückt
[2]
  Änderung der Erregbarkeit der Pyramidenzellen durch die Gegenwart von 4-Aminopyridin: vermindert
[3]
  durch 4-Aminopyridin provozierte Erhöhung der Erregbarkeit (ex vivo): Unterdrückung der durch 4-Aminopyridin provozierten Erhöhung
[4]; 1 Gramm daily orally for 2 months
  Ausprägung des alpha1 Fokus im Frontallappen (Nachuntersuchung): deutlich geringere Ausprägung des alphal Fokus im Frontallappen
[4]; 1 Gramm daily orally in the evening for 2 months, baseline on average 20 seizures per month under 3 g antiepileptics
  Häufigkeit der Anfälle: um die Hälfte reduziert

## COc1ccc([C@@H]2CC(=O)c3c(O)cc(O)cc3O2)cc1O [Hesperetin]
Fischer-344 Ratten; 320 mg/kg i.p., after 2 hours, frontal cortex
  Veränderungen der elektrischen Hirnaktivität: Zunahmen der delta und alpha2 Aktivität
Fischer-344 Ratten; higher dose
  EEG-Muster im Vergleich zu Referenzmedikamenten (Diskriminanzanalyse): dem klassischer Antikonvulsiva ähnlich
Fischer-344 Ratten; i.p. single dose, low dose range
  Veränderungen der elektrischen Hirnaktivität: im niedrigen Dosisbereich dem nach Gabe von Hesperidin entsprach
Fischer-344 Ratten; low doses
  EEG-Muster im Vergleich zu Referenzmedikamenten (Diskriminanzanalyse): wie es für die Applikation von Mitteln gegen Migräne und Schizophrenie (Metoprolol bzw. Haloperidol und Risperidon) typisch ist
[2]
  Änderung der Erregbarkeit der Pyramidenzellen durch die Gegenwart von 4-Aminopyridin: nicht jedoch von Hesperetin vermindert
[3]
  durch 4-Aminopyridin provozierte Erhöhung der Erregbarkeit (ex vivo): nicht jedoch in den mit Placebo oder Hesperetin behandelten Tieren
